In US4782076A, “Substituted 2,3,4,9-tetrahydro-1H-carbazole-1-acetic acid derivatives, composition and use” (American Home Products Corporation, priority 1988, dated 1988):

Experiments:
[1] = test system: Freund's complete adjuvant-induced hind paw edema in rats; test: Preventive adjuvant edema in rats (Preventative Adjuvant Edema); format: in vivo, Male Sprague Dawley rats; conditions: 25 mg/kg, p.o., day 0, 1 and 2; edema measured day 3
Description: This test is a primary screen for anti-inflammatory drugs.
Male Sprague Dawley rats (180-200 g) are used. The animals have free access to water but food is withdrawn 18 hours before testing.
Drug Preparations and Administration:
Freund's complete adjuvant is prepared by suspending 5 mg killed and dried Mycobacterium butyricum (Difco) in 1 mL liquid paraffin. The test compounds are dissolved in distilled water or suspended in 0.5% Tween 80 in distilled water according to their solubility. For primary screening all drugs are administered by gastric lavage at the arbitrary dosage of 25 mg/kg, p.o. in a volume of 0.5 mL/100 g body weight to groups of 10 animals.
The method is essentially that described by Wax et al, J. Pharmacol. Exp. Ther., 192, 166-171 (1975). Groups of rats are injected intradermally in the left hind paw with 0.1 mL of Freund's complete adjuvant. […] The injected hind paw volume is measured before the injection of adjuvant and 24 hours after the last drug administration (day 3) by means of a plethysmometer (Buxco Electronics Inc.). […]
The mean edema volume (expressed in mL±SEM) is calculated for each group and the percentage inhibition of inflammation conferred by the drug is calculated: [formula] where c is the mean edema volume for the untreated controls and t is the means edema volume for the drug treated group.

[2] = test system: phenylbenzoquinone-induced writhing in mice; test: Phenylbenzoquinone-induced writhing in mice (Phenylquinone Writhing in Mice); format: in vivo, Male Swiss albino mice; conditions: 60 min before PBQ i.p.
Description: A further test used to determine the utility of the compounds of the present invention is designated: DRUG EFFECTS ON PHENYLBENZOQUINONE-INDUCED WRITHING IN MICE
The objective of this test is to determine the ability of test drugs to inhibit the nociceptive (pain) response of mice injected with a chemical irritant. This test is a primary screen for both peripheral and centrally acting analgesic drugs.
Male Swiss albino mice (15-25 g) are used. The animals are fasted for 18 hours prior to use but have free access to water.
(§1) Drug Preparation and Administration:
Drugs are dissolved or suspended according to their solubility in 0.5% Tween 80 in distilled water. They are administered by gastric lavage in a volume of 5 mL/kg. […]
A modification of the method of Siegmund et al, Proc. Soc. […] The number of writhing or abdominal squirming movements made by each mouse during the following 15 minute period is counted. The experiment is repeated with another group of 5 mice and the mean number of writhes per mouse for a group of 10 mice is calculated.
Drug treated and vehicle-treated control groups are compared and the percentage inhibition of writhing conferred by the drug is calculated: [formula] where c=mean number of writhes in the control group, and where t=mean number of writhes in the test drug group.

[3] = test system: reaction of rats to painful stimulation applied to an inflamed paw; test: Paw pressure test in the rat; format: in vivo, Male Sprague Dawley rats; conditions: po, 24 hours after Freund's adjuvant, pain threshold 1 hour later, dose which causes analgesia in 50% of the animals
Excerpt: A still further test used to determine the utility of the compounds of the present invention is designated: PAW PRESSURE TEST IN THE RAT
The objective of this test is to assess the potency of peripheral and central acting drugs in inhibiting the reaction of rats to painful stimulation applied to an inflamed paw.
Male Sprague Dawley rats (180-200 g) are used. The animals are fasted overnight prior to drug administration.
as §1
Freund's Complete Adjuvant (FCA) is prepared by suspending 5 mg killed and dried Mycobacterium butyricum (Difco) in 1 mL liquid paraffin. The test compounds are dissolved or susended in 0.5% Tween 80 in distilled water according to their solubility. They are administered by gastric gavage in a volume of 0.5 mL/100 g body weight to groups of 10 animals.
Ten rats are used per group. The method is essentially that described by Randall et al, Arch. Int. Pharmacodyn. […] The force is continuously monitored by a pointer moving along a linear scale and is measured in grams. […] The pain threshold is determined 1 hour later in the inflamed paw and the normal paw of the treated and control groups. […]
Each animal which has a reading 1.5 times greater than the mean reading of the control-group will be considered as responsive to treatment. The number of animals showing an analgesic effect is then determined in each group. […]

Structure (SMILES)	% Inhibition [1]	ED50 ([2]; Mus musculus, po)	ED50 [3]	% Inhibition ([2]; 25 mg/kg, p.o.)
C#CCC1CCC(CC)(CC(=O)O)c2[nH]c3c(CC)cccc3c21 (single isomer, unassigned; isomer a) [Example 1, 1,8-Diethyl-2,3,4,9-tetrahydro-4-(2-propynyl)-1H-carbazole-1-acetic Acid Isomer A]	51%	6.6 mg/kg	0.38 mg/kg	–
C#CCC1CCC(CC)(CC(=O)O)c2[nH]c3c(CC)cccc3c21 (single isomer, unassigned; isomer b) [Example 2, 1,8-Diethyl-2,3,4,9-tetrahydro-4-(2-propynyl)-1H-carbazole-1-acetic Acid Isomer B]	36%	–	–	8%
